1 molecule from ChEMBL document CHEMBL5505982, “Design, synthesis, biological evaluation and in silico studies of novel quinoline derivatives as potential radioprotective molecules targeting the TLR2 and p53 pathways” (Eur J Med Chem, 2024) can be followed below.

As a reminder, the IC50 is the point on the concentration scale where inhibition reaches its midpoint.

The subject of test [1] is AHH-1. Put plainly: Cytotoxicity against human AHH-1 cells assessed as inhibition of cell growth incubated for 24 hrs by CCK-8 assay. Particulars: AHH-1, 24 h. The class given is functional, cell-based.
The subject of test [2] is Mus musculus. Nature of the test: Radioprotective activity in C57BL/6J mouse assessed as survival rate at 30 mg/kg, ip preincubated with compound for 15 to 1440 mins followed by irradiation and measured at day 30. The class given is functional. To be noted: light or radiation study, time 15-44640 min.
In test [3] the test system is Mus musculus. Put plainly: Radioprotective activity in irradiated C57BL/6J mouse model assessed as increase in WBC count at 300 mg/kg, ip preincubated with compound for 15 to 1440 mins followed by irradiation with 6.5 Gy and measured after 10 to 13 days of radiation relative to Ex-RAD/control. The class given is functional, organism-based.
Test [4] deals with Mus musculus. Nature of the test: Radioprotective activity in irradiated C57BL/6J mouse model assessed as increase in RBC count at 300 mg/kg, ip preincubated with compound for 15 to 1440 mins followed by irradiation with 6.5 Gy and measured after 13 days of radiation. The class given is functional, organism-based. To be noted: Erythrocyte, time 15-20160 min.
For test [5], the system named is Mus musculus. Put plainly: Radioprotective activity in irradiated C57BL/6J mouse model assessed as increase in platelets count at 300 mg/kg, ip preincubated with compound for 15 to 1440 mins followed by irradiation with 6.5 Gy and measured after 3 to 10 days of radiation. The class given is functional, organism-based.
In test [6] the test system is Mus musculus. Put plainly: Radioprotective activity in irradiated C57BL/6J mouse model assessed as increase in HGB count at 300 mg/kg, ip preincubated with compound for 15 to 1440 mins followed by irradiation with 6.5 Gy and measured after 1 to 10 days of radiation. The format is functional, organism-based.
In test [7] the test system is Mus musculus. Nature of the test: Radioprotective activity in irradiated C57BL/6J mouse model assessed as increase in HGB count at 300 mg/kg, ip preincubated with compound for 15 to 1440 mins followed by irradiation with 6.5 Gy and measured after 13 days of radiation. To be noted: time 15-20160 min. The class given is functional, organism-based.
In test [8] the test system is Mus musculus. Put plainly: Radioprotective activity against radiation-induced intestinal injury C57BL/6J mouse model assessed as increase in splenic index at 300 mg/kg, ip preincubated with compound for 15 to 1440 mins followed by irradiation with 13 Gy and measured after 84 hrs of radiation by H and E staining based analysis. The class given is functional, organism-based. Particulars: time 15-6480 min.

Test [9] relates to AHH-1. Nature of the test: Induction of apoptosis in human AHH-1 cells assessed as viable cells preincubated with compound for 24 hrs followed by irradiation with 4 Gy and measured after 24 hrs of radiation by Annexin V-FITC/PI staining based flow cytometry analysis (reference value: 66.9 %). To be noted: time 48 hrs. The class given is functional. Background: In flow cytometry, cells or beads pass a laser one at a time.

Test [10] has as its system AHH-1. Nature of the test: Induction of apoptosis in human AHH-1 cells assessed as viable cells preincubated with compound for 24 hrs followed by irradiation with 6 Gy and measured after 24 hrs of radiation by Annexin V-FITC/PI staining based flow cytometry analysis (reference value: 52.3%). Particulars: time 48 hrs. The format is functional.
In test [11] the test system is AHH-1. Nature of the test: Induction of apoptosis in human AHH-1 cells assessed as necrotic cells preincubated with compound for 24 hrs followed by irradiation with 6 Gy and measured after 24 hrs of radiation by Annexin V-FITC/PI staining based flow cytometry analysis (reference value: 3.71%). The format is functional. To be noted: time 48 hrs.
Test [12] addresses Toll-like receptor 2 (Homo sapiens, UniProt O60603). Nature of the test: Agonist activity at TLR2 in human HUVEC cells assessed as increase in p65 level pretreated with compound for 24 hrs in presence of ionizing irradiation by Western blotting analysis. The format is cell-based. To be noted: filed as agonist. (In general: Immunoblotting shows a protein as a band on a membrane.)

Calls of active or inactive are those of the source. No cut-off for these calls is given here.

Sequence of Toll-like receptor 2 (O60603 whole entry): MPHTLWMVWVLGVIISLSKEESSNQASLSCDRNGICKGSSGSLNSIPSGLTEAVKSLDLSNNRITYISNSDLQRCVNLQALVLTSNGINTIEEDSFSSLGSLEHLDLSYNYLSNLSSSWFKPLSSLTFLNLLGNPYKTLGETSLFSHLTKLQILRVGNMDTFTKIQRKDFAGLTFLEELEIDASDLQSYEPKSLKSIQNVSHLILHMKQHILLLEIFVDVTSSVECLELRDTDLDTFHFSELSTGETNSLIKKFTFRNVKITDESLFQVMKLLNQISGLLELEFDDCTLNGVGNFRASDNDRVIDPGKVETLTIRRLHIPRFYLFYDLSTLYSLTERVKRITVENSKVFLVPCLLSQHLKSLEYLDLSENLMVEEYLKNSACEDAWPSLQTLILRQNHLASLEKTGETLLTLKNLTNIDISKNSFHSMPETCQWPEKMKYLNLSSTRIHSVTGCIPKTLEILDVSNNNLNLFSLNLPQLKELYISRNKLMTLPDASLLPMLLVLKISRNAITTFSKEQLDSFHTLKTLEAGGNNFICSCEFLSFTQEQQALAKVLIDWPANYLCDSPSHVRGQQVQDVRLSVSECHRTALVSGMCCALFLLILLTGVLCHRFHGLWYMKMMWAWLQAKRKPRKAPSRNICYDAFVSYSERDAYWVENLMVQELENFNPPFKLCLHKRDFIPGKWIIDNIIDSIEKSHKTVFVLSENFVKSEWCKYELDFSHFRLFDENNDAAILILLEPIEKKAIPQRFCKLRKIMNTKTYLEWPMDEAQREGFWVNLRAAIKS

For the molecule `[O-][S+](Cc1ccc(F)cc1)c1ccc2cc(Br)ccc2n1` (configuration not stated), the IC50 in test [1] was 154 µM. The survival at 30 mg/kg in test [2] worked out at 80%. Also, the result in test [3], in test [4], in test [7], in test [8] and in test [12] was Active. Moreover, the outcome in [5] and in test [6] was inactive. For the same molecule, the results for the Activity in test [9], in test [10] and in [11] were 72.4%, 67.6% and 2.55%, respectively.
